Measurements reported in US11208412B2 (DAEGU-GYEONGBUK MEDICAL INNOVATION FOUNDATION, priority 2017, dated 2021).

Legend:
Assay in all cases: Kinase selectivity, DiscoverX scanMAX Kinase assay panel (% control)
Assay type in all cases: binding
[1] = target: T1, kinases of the scanMAX Kinase assay panel (Homo sapiens, UniProt O14936); details: CASK; 1 uM
T1 construct: purchased DiscoverX Co. (contract measurement) scanMAX Kinase assay panel
T1 sequence (O14936 1-926): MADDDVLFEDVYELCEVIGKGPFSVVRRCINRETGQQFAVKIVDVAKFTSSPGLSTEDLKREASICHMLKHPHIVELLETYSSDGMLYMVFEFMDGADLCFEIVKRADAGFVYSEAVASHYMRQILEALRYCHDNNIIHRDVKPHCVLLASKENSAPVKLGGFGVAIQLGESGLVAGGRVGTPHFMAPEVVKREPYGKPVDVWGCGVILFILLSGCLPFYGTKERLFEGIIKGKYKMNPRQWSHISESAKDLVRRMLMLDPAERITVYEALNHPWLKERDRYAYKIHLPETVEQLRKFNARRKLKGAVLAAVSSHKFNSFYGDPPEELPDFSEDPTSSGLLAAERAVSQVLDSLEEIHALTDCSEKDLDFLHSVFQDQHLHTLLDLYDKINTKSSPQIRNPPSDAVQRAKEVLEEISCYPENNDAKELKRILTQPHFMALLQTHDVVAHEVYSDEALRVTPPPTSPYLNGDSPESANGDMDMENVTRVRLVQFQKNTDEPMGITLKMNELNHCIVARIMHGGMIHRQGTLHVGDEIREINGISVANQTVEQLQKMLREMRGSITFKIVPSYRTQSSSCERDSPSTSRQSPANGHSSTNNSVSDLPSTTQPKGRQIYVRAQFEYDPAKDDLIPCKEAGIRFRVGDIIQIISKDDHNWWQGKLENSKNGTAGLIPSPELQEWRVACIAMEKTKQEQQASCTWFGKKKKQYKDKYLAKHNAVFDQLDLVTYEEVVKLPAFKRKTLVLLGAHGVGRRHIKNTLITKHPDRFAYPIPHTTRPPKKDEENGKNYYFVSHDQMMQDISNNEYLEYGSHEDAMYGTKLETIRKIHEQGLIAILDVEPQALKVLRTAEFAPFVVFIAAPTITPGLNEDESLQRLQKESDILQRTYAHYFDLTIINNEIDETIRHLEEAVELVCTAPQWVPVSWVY
Summary of the method: (§1)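 Compounds were tested at 1 uM (in DMSO) against each panel kinase. % control was calculated as (compound − positive control)/(negative control − positive control)×100, where the positive control gives 0% and DMSO gives 100%. Activity toward a kinase was called at % control <35%.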

[2] = target: T2, kinases of the scanMAX Kinase assay panel (Homo sapiens, UniProt P24723); details: PRKCH; 1 uM
T2 construct: purchased DiscoverX Co. (contract measurement) scanMAX Kinase assay panel
Summary of the method: as §1

[3] = target: T3, kinases of the scanMAX Kinase assay panel (Homo sapiens, UniProt P42681); details: kinase TXK; 1 uM in DMSO
T3 construct: purchased DiscoverX Co. (contract measurement) scanMAX Kinase assay panel
T3 sequence (P42681 1-527): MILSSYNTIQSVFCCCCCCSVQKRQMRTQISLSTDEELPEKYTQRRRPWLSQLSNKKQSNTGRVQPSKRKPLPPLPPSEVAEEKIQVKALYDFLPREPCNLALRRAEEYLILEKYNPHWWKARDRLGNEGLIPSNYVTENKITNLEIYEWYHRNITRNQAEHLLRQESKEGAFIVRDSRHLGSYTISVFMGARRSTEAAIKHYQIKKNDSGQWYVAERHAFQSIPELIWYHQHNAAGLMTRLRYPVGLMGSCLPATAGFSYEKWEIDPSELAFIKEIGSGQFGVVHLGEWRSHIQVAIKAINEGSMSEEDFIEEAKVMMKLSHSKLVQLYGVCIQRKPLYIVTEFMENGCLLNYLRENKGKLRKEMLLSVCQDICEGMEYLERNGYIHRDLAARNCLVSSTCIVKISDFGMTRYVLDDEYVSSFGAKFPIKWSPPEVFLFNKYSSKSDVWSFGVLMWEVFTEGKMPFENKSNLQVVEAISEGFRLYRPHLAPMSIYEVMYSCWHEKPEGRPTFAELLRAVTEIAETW
Summary of the method: as §1

[4] = target: T4, kinases of the scanMAX Kinase assay panel (Homo sapiens, UniProt Q13177); details: PAK2; 1 uM
T4 construct: purchased DiscoverX Co. (contract measurement) scanMAX Kinase assay panel
Summary of the method: as §1

[5] = target: T5, kinases of the scanMAX Kinase assay panel (Homo sapiens, UniProt Q99640); details: PKMYT1; 1 uM
T5 construct: purchased DiscoverX Co. (contract measurement) scanMAX Kinase assay panel
T5 sequence (Q99640 1-499): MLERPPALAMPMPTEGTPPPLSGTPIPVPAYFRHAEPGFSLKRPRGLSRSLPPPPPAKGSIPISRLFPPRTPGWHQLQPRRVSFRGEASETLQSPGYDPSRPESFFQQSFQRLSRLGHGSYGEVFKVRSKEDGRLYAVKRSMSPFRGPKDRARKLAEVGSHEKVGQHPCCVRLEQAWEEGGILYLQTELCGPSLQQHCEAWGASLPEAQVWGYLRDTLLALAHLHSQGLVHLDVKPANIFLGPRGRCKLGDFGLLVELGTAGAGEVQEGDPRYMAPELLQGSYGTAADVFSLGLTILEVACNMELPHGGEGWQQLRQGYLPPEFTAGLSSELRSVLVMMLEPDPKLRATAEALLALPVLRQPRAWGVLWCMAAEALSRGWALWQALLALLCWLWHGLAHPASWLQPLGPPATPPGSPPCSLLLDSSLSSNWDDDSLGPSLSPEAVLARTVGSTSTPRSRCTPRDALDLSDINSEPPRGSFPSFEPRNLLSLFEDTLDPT
Summary of the method: as §1

[6] = target: T6, kinases of the scanMAX Kinase assay panel (Homo sapiens, UniProt Q9UM73, C1156Y); details: ALK(C1156Y); 1 uM
T6 construct: purchased DiscoverX Co. (contract measurement) scanMAX Kinase assay panel
Summary of the method: as §1

T4 sequence (Q13177 whole entry): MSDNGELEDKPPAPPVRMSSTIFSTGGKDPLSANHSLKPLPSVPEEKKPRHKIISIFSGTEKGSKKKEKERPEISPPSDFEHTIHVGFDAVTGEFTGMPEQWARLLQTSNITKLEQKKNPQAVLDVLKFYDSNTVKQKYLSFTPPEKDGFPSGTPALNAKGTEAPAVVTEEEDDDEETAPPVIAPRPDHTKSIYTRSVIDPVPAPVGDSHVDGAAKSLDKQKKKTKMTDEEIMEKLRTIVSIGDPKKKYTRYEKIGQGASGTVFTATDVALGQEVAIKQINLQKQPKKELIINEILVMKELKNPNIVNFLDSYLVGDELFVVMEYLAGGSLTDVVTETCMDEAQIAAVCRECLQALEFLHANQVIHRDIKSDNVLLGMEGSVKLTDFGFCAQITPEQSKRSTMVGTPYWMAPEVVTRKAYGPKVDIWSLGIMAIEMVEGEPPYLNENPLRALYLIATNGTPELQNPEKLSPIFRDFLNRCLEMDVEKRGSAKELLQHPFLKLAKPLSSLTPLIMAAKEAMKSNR
T2 sequence (P24723 whole entry): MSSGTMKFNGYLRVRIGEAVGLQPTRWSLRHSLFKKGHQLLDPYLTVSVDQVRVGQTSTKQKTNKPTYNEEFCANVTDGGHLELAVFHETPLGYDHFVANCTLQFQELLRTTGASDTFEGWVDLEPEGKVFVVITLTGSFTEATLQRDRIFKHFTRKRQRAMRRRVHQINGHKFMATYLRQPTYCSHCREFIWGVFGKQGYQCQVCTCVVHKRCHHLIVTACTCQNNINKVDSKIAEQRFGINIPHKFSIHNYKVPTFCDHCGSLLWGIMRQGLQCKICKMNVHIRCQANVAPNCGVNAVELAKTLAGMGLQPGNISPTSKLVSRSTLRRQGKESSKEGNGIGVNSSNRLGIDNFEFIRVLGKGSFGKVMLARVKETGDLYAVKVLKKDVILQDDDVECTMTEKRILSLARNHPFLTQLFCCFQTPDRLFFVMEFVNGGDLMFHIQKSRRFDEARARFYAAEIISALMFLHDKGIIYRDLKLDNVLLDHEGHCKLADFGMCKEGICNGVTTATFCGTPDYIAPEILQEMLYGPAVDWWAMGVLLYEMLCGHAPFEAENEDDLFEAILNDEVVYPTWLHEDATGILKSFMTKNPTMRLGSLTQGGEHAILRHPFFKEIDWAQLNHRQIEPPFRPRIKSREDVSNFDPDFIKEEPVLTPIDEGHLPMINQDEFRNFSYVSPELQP
T6 sequence (Q9UM73 19-1620 C1156Y): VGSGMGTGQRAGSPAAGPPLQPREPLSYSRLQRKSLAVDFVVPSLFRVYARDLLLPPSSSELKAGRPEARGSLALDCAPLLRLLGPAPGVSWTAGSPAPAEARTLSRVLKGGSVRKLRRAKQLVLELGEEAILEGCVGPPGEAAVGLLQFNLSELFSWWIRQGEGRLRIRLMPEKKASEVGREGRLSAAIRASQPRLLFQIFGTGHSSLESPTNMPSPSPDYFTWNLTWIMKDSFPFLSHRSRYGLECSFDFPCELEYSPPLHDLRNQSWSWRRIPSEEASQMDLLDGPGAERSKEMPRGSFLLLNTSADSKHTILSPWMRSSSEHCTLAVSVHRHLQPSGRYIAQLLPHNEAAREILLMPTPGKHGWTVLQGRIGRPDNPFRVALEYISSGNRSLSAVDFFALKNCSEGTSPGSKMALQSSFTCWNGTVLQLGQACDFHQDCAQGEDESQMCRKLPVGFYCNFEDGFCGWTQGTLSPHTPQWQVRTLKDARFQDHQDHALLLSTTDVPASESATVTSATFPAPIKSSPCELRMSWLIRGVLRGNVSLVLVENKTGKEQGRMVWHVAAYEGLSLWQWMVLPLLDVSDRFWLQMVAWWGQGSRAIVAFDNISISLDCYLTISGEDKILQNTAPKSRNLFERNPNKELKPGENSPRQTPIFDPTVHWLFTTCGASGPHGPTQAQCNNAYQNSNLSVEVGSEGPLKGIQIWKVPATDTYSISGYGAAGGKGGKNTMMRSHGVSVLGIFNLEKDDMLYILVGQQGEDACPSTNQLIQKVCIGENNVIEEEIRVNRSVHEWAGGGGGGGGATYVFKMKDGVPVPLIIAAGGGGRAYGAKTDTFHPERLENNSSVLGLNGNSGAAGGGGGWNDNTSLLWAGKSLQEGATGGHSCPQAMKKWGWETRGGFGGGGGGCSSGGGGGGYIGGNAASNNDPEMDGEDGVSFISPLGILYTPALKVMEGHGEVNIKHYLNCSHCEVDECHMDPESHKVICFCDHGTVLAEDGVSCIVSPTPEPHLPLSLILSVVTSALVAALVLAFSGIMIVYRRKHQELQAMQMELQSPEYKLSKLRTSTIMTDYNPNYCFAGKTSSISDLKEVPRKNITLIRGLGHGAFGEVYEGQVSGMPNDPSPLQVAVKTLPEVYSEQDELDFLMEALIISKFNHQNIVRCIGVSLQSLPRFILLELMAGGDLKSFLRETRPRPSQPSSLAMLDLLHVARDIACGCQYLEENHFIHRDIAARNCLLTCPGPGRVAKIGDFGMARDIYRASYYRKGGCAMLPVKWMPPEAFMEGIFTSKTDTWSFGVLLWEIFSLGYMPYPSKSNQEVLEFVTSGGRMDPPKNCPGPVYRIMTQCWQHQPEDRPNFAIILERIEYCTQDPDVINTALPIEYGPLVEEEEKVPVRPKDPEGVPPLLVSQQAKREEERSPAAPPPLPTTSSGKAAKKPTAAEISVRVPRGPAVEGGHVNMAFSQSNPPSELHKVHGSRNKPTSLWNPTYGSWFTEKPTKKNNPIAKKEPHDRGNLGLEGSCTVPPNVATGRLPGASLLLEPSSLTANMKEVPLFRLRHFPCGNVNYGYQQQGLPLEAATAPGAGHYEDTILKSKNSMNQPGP

SMILES: CNc1nc(Nc2ccc(C(=O)N3CCOCC3)cc2OC)nc2[nH]cc(C#N)c12 [Example 1, 2-((2-methoxy-4-(morpholine-4-carbonyl)phenyl)amino)-4-(methylamino)-7H-pyrrolo[2,3-d]pyrimidine-5-carbonitrile]
- remaining binding at 1 µM [1]: 69%
- remaining binding at 1 µM [2]: 93%
- remaining binding at 1 µM [3]: 100%
- remaining binding at 1 µM [4]: 95%
- remaining binding at 1 µM [5]: 99%
- remaining binding at 1 µM [6]: 9.3%

SMILES: CC1(Nc2nc(Nc3cnn([C@H]4CCN(C5COC5)C[C@@H]4F)c3Cl)nc3[nH]cc(C#N)c23)CC1 [Example 52, 2-((5-chloro-1-((3S,4S)-3-fluoro-1-(oxetane-3-yl)piperidine-4-yl)-1H-pyrazole-4-yl)amino)((1-methylcyclopropyl)amino)-7H-pyrrolo[2,3-d]pyrimidine-5-carbonitrile]
- remaining binding at 1 µM [1]: 91%
- remaining binding at 1 µM [2]: 100%
- remaining binding at 1 µM [3]: 40%
- remaining binding at 1 µM [4]: 45%
- remaining binding at 1 µM [5]: 89%
- remaining binding at 1 µM [6]: 0.8%

SMILES: CCNc1nc(Nc2ccc(C(=O)N3CCC(N4CCOCC4)CC3)cc2OC)nc2[nH]cc(C(F)(F)F)c12 [Example 104, (4-((4-(ethylamino)-5-(trifluoromethyl)-7H-pyrrolo[2,3-d]pyrimidine-2-yl)amino)-3-methoxyphenyl)(4-morpholinopiperidine-1-yl)methanone]
- remaining binding at 1 µM [1]: 100%
- remaining binding at 1 µM [2]: 100%
- remaining binding at 1 µM [3]: 100%
- remaining binding at 1 µM [4]: 71%
- remaining binding at 1 µM [5]: 100%
- remaining binding at 1 µM [6]: 16%
